Patent US7867978B2, “Methods and compositions for treating neurological disorders” (The University of Kentucky Research Foundation, priority 2007, dated 2011)
“Also recorded” adds a separate entry of the source. Values belong to the compound of their own block, whether it stands above or below them. Ends that are not written are not given here.

Tests used:
iNOS [1] = test: iNOS activity in cell lines stably transfected with Kalirin-7, iNOS induced by iNOS plasmid, LPS or LPS plus Aβ1-42; type: cell-based; conditions: for iNOS activity: AtT20, SH-SY5Y, Neuro2A and C6 cell lines, iNOS raised by iNOS plasmid, LPS, or LPS plus Aβ1-42, Canavanine or L-NAME 10 mM; for Aβ1-42-augmented iNOS activity: LPS plus Aβ1-42 treated cell lines
Protocol: Assays for iNOS and NOS—The hippocampal and cerebellar specimens and the transfected cells were homogenized in 50 mM Tris HCl (pH 7.4), 1 mM EDTA, 0.1 mM tetrahydrobiopterin, 2 mM dithiothreitol, 10% (v/v) glycerol, aprotinin (25 μg/ml), leupeptin (25 μg/ml), 100 μM PMSF, 10 μM FMN, and 10 μM FAD. The homogenates were centrifuged at 2,000×g for 15 min, and the supernatants were assayed for iNOS. iNOS was also assayed in the presence of 10 mM Canavanine (Sigma) or L-NAME (Sigma). The collective activity of NOS (including eNOS, nNOS and iNOS) was determined in an identical fashion to iNOS activity, but in the presence of 1.25 mM Ca^2+.
Preparation of Aβ1-42 peptide—One mM of A β1-42 (Biosource) was prepared in a capped vial at 37° C. for 5 days, and stored at −20° C. The frozen stock solution was diluted and used at the final concentration of 10 μM.
Cell culture and transfection—AtT-20 cells (ATCC# CCL-89), SH-SY5Y cells (ATCC# CRL-2266), C6 cells (ATCC# CCL-107) and Neuro-2A cells (ATCC # CCL-131) were cultured according to the supplier's instructions. Each cell line was grown in a 25 cm^2 flask, stably transfected with pcDNA4 vector carrying Kalirin-7 or pcDNA3 carrying iNOS, using SuperFect transfection reagents (Qiagen) following the manufacture's instructions. Stable cell lines were selected using 0.5 mg/ml of G-418 for pcDNA3 or 0.12 μg/ml of zeocin for pcDNA4.
To induce the iNOS activity, cell lines were transfected with iNOS in pcDNA3 or stimulated with 3 μg/ml of lipopolysaccharides (LPS) for 12-16 h (27) or 10 μM A β1-42 peptide for 18 h. Two different approaches of double transfection with Kalirin-7 and iNOS were used to determine the effects of Kalirin-7 on iNOS. The cell line stably expressing Kalirin-7 was transiently transfected with iNOS, and conversely, the cell line stably expressing iNOS was transiently transfected with increasing amounts of pcDNA4 carrying Kalirin-7 or Kalirin domains.

iNOS [2] = molecular target: T1, iNOS (Homo sapiens, UniProt P35228); test: iNOS activity in AtT-20 cells stably expressing iNOS, transiently transfected with Kalirin-7, Kalirin domain or section plasmids; type: cell-based, mouse
T1 construct: expressed in transfected cells
T1 sequence (P35228 whole entry, species assumed, the tested form may be a part): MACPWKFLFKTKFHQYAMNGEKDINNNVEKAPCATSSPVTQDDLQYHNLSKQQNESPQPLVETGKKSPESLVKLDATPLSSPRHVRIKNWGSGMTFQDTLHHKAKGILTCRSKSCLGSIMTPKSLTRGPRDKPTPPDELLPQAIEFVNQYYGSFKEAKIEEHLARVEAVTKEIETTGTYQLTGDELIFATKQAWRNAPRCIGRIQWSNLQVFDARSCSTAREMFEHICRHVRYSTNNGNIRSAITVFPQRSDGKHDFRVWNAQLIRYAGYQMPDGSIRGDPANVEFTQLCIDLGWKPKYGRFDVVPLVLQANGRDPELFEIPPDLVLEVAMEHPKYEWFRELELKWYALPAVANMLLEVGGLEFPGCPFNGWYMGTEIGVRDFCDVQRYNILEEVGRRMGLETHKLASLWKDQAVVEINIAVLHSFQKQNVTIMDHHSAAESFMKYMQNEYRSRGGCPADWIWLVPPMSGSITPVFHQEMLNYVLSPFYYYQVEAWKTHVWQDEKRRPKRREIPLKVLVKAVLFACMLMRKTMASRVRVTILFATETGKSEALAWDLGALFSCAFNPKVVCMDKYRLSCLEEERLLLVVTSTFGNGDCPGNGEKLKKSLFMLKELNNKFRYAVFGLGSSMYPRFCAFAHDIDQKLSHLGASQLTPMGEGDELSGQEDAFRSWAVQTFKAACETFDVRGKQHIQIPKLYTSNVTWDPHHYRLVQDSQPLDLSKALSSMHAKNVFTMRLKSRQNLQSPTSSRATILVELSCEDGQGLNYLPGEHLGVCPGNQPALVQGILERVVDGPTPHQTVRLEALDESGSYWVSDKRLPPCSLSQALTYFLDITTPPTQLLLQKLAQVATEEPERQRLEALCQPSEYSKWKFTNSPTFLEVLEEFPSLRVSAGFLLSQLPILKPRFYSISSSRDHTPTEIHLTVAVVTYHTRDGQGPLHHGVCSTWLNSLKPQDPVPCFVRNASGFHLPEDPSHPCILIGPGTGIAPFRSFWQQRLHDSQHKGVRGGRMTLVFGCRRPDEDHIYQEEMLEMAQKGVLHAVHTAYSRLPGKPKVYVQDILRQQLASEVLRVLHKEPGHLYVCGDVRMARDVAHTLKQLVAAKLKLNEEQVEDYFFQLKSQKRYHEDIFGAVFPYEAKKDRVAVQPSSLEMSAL
Protocol: Assays for iNOS and NOS-The hippocampal and cerebellar specimens and the transfected cells were homogenized in 50 mM Tris HCl (pH 7.4), 1 mM EDTA, 0.1 mM tetrahydrobiopterin, 2 mM dithiothreitol, 10% (v/v) glycerol, aprotinin (25 μg/ml), leupeptin (25 μg/ml), 100 μM PMSF, 10 μM FMN, and 10 μM FAD. […] The collective activity of NOS (including eNOS, nNOS and iNOS) was determined in an identical fashion to iNOS activity, but in the presence of 1.25 mM Ca^2+. Cell culture and transfection-AtT-20 cells (ATCC# CCL-89), SH-SY5Y cells (ATCC# CRL-2266), C6 cells (ATCC# CCL-107) and Neuro-2A cells (ATCC # CCL-131) were cultured according to the supplier's instructions. Each cell line was grown in a 25 cm^2 flask, stably transfected with pcDNA4 vector carrying […]-7 or pcDNA3 carrying iNOS, using SuperFect transfection reagents (Qiagen) following the manufacture's instructions. Stable cell lines were selected using 0.5 mg/ml of G-418 for pcDNA3 or 0.12 μg/ml of zeocin for pcDNA4. To induce the iNOS activity, cell lines were transfected with iNOS in pcDNA3 or stimulated with 3 μg/ml of lipopolysaccharides (LPS) for 12-16 h (27) or 10 μM A β1-42 peptide for 18 h. Two different approaches of double transfection with […]-7 and iNOS were used to determine the effects of […]-7 on iNOS. The cell line stably expressing […]-7 was transiently transfected with iNOS, and conversely, the cell line stably expressing iNOS was transiently transfected with increasing amounts of pcDNA4 carrying […]-7 or […] domains.

iNOS [3] = molecular target: T1, iNOS; test: Co-immunoprecipitation of iNOS with Kalirin-7 by anti-Kalirin in co-transfected AtT-20 cells; type: binding; conditions: increasing amounts of Kalirin-7 plasmid
Protocol: Immunoblot and immunoprecipitation—Proteins were extracted. Brain samples were directly solubilized in 10 volume of lysis buffer (50 mM Tris HCl at pH 7.5, 120 mM NaCl, 5 mM EDTA, 1% Nonidet P-40 (0.3 mg/ml), 8 μg/ml aprotinin, 2 μg/ml pepstatin A, 2 μg/ml leupeptin, 1 mM Na3VO4, 50 mM NaF and 0.2% of SDS) using Omni 2000 homogenizer (Omni International Inc). The solubilized samples were centrifuged at 15,000×g for 10 min, the supernatants were saved, and protein concentration was measured by the Bradford method. Cultured cells were suspended in another lysis buffer consisting of 100 mM Tris HCl (pH7.5), 150 mM NaCl, 2 mM EDTA, 0.5% of Triton X-100, 1 mM PMSF, 4 μg/ml aprotinin, 1 μg/ml pepstatin A, 1 μg/ml leupeptin, 1 mM Na3VO4, 50 mM NaF and 0.2% of SDS), and processed.
An equal protein-amount of solubilized supernatants was resolved by SDS-PAGE and blotted onto polyvinylidene difluoride membrane. The membranes were incubated for 1 h in blocking solution containing 3% bovine serum albumin. The membranes were incubated for 1 h with primary antibodies diluted 1:500 in Tris-buffered saline containing 0.1% Tween 20. After washing, membranes were incubated for 1 h in 1:10,000 dilution of secondary antibodies coupled to horseradish peroxidase. […] Blots were scanned, and the band intensity was digitized and quantified using Molecular Dynamics Image Quant 5.1. […]

[4] = tested on: AtT-20 cells stably expressing iNOS; test: Renilla luciferase assay as transfection reference for toxic effect of plasmid DNA; type: cell-based, mouse; conditions: increasing plasmid amounts co-transfected with constant pRL-TK vector
Protocol: To test the putative toxic effect of high concentrations of plasmid DNA, up to 2.5 μg, the Renilla luciferase assay (Promega) was used as a transfection reference. The AtT-20 cells stably expressing iNOS were transiently transfected with a constant amount of the pRL-TK vector (Promega) carrying Renilla luciferase and increasing amounts of the Kalirin plasmid. The co-transfected cells were assayed for iNOS and luciferase following the manufacturer's instructions.

Compound: Aβ1-42: amyloidogenic peptide Aβ1-42 (Biosource), used at 10 μM
iNOS activity induced by LPS treatment (iNOS [1]; LPS plus 10 μM Aβ1-42, stable cell lines): augments iNOS activity

suppression of iNOS versus plasmid concentration (iNOS [2]; increasing amounts of Kalirin section 8 plasmid): dependent on the concentration
iNOS suppression (iNOS [2]; transient transfection with pcDNA4 carrying individual 33 amino acid sections, compared with D2 and wild type Kalirin 7): suppressed most effectively
Compound: KAARHLEVRIQDFVRRVEQRKLLLDMSVSFHTH (also: Flag epitope tag; listed as Homo sapiens) [section # 8]

Compound: N=C(N)NOCC[C@H](N)C(=O)O [Canavanine]
iNOS activity (iNOS [1]): suppressed to basal levels
Aβ1-42-augmented iNOS activity (iNOS [1]): attenuated

iNOS activity (iNOS [2]; increasing amounts of pcDNA4 Kalirin-7 vector): decreased
Compound: Kalirin-7: cytoplasmic protein of >1,660 amino acids (SEQ ID NO:2), expressed from pcDNA4 carrying the Kalirin-7 cDNA
iNOS activity (iNOS [1]): suppressed to basal levels
Aβ1-42-augmented iNOS activity (iNOS [1]): attenuated
iNOS co-immunoprecipitated by anti-Kalirin (iNOS [3]): increasing concentrations of iNOS were co-immunoprecipitated
synthesis and activity of Renilla luciferase (putative toxic effect of plasmid) [4]: did not impair

Compound: COC(=O)[C@@H](N)CCCNC(=N)N[N+](=O)[O-] [L-NAME]
iNOS activity (iNOS [1]): suppressed to basal levels
Aβ1-42-augmented iNOS activity (iNOS [1]): attenuated

Compound: D2: Kalirin domain consisting of the 354 amino acid V506-Q860 sequence of SEQ ID NO:2, expressed from pcDNA4
iNOS activity (iNOS [2]; transient transfection with pcDNA4 carrying individual Kalirin-7 domains): attenuated; also recorded: most notably attenuated
